Test results reported in PubChem BioAssay (NCI).
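Where inhibition never reached the appropriate level, the endpoint shown equals the highest concentration tested. Otherwise, values were interpolated linearly from a five-concentration, 48-hour dose response in 96-well plates. Here, GI50 denotes the concentration required for 50% inhibition of growth. TGI: total growth inhibition.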

Assays:
Assay in all cases: inhibition of tumour cell growth, NCI panel, 48 h
HS 578T breast = tested on: HS 578T breast
UACC-257 melanoma = tested on: UACC-257 melanoma
BT-549 breast = tested on: BT-549 breast
NCI-H226 lung = tested on: NCI-H226 lung
786-0 renal = tested on: 786-0 renal
SF-539 CNS = tested on: SF-539 CNS
SK-MEL-28 melanoma = tested on: SK-MEL-28 melanoma
UACC-62 melanoma = tested on: UACC-62 melanoma
MALME-3M melanoma = tested on: MALME-3M melanoma
SNB-19 CNS = tested on: SNB-19 CNS
A549 NSCLC = tested on: A549 NSCLC
NCI/ADR-RES ovarian = tested on: NCI/ADR-RES ovarian
IGROV1 ovarian = tested on: IGROV1 ovarian
HOP-62 NSCLC = tested on: HOP-62 NSCLC
RXF 393 renal = tested on: RXF 393 renal
SK-MEL-5 melanoma = tested on: SK-MEL-5 melanoma
DU-145 prostate = tested on: DU-145 prostate
HCT-116 colon = tested on: HCT-116 colon

With `C[C@]12CC[C@H]3[C@@H](CCC4=CC(=O)CC[C@@]43C)[C@@H]1CC[C@@H]2OC(=O)c1cccc2c(=O)c3ccccc3[nH]c12` the TGI (HS 578T breast) was over 100 µM, the TGI (UACC-257 melanoma) was over 100 µM and the TGI (BT-549 breast) was over 100 µM. It also gave a TGI (NCI-H226 lung) of over 100 µM, a TGI (786-0 renal) of 38.6 µM and a TGI (SF-539 CNS) of over 100 µM. The TGI (SK-MEL-28 melanoma) was over 100 µM, the TGI (UACC-62 melanoma) was over 100 µM and the TGI (MALME-3M melanoma) was over 100 µM. The TGI (SNB-19 CNS) was over 100 µM, the TGI (A549 NSCLC) was over 100 µM and the TGI (NCI/ADR-RES ovarian) was over 100 µM. It also gave a TGI (IGROV1 ovarian) of over 100 µM, a TGI (HOP-62 NSCLC) of over 100 µM and a TGI (RXF 393 renal) of over 100 µM. The TGI (SK-MEL-5 melanoma) was over 100 µM.
For `CC(=O)Oc1ccc2c3c1[C@@H]1O[C@@H]1c1cccc(c1-3)[C@@H]1O[C@H]21`, the TGI (HS 578T breast) was 5.98 µM, the GI50 (UACC-257 melanoma) was 2.75 µM and the TGI (UACC-257 melanoma) was over 100 µM. It also gave a TGI (BT-549 breast) of 3.98 µM, a TGI (NCI-H226 lung) of 84.2 µM and a TGI (DU-145 prostate) of 4.18 µM. The TGI (786-0 renal) was 3.14 µM, the TGI (UACC-62 melanoma) was 3.44 µM and the TGI (SNB-19 CNS) was 23.1 µM. For the same compound, the GI50 (NCI/ADR-RES ovarian) was 1.4 µM, the TGI (NCI/ADR-RES ovarian) was 3.76 µM and the TGI (HOP-62 NSCLC) was 3.96 µM. It also gave a TGI (RXF 393 renal) of 2.73 µM, a TGI (SK-MEL-5 melanoma) of 3.56 µM and a TGI (HCT-116 colon) of 2.87 µM.
With `CC(C)=C=CC(C)(C)NS(=O)(=O)NC(C)(C)C=C=C(C)C` the TGI (HS 578T breast) was over 100 µM, the TGI (UACC-257 melanoma) was over 100 µM and the TGI (NCI-H226 lung) was over 100 µM. It also gave a TGI (DU-145 prostate) of over 100 µM, a TGI (786-0 renal) of over 100 µM and a TGI (SF-539 CNS) of over 100 µM. For the same compound, the TGI (SK-MEL-28 melanoma) was over 100 µM, the TGI (UACC-62 melanoma) was over 100 µM and the TGI (MALME-3M melanoma) was over 100 µM. The TGI (SNB-19 CNS) was over 100 µM, the TGI (A549 NSCLC) was over 100 µM and the TGI (NCI/ADR-RES ovarian) was over 100 µM. The TGI (IGROV1 ovarian) was over 100 µM, the TGI (HOP-62 NSCLC) was over 100 µM and the TGI (SK-MEL-5 melanoma) was over 100 µM. It also gave a TGI (HCT-116 colon) of over 100 µM.
With `CCCC(=O)Oc1cc(OC(=O)CCC)c2c(C)cc(=O)oc2c1` the TGI (HS 578T breast) was over 100 µM, the TGI (UACC-257 melanoma) was over 100 µM and the TGI (NCI-H226 lung) was over 100 µM. It also gave a TGI (DU-145 prostate) of over 100 µM, a TGI (786-0 renal) of over 100 µM and a TGI (SF-539 CNS) of over 100 µM. For the same compound, the TGI (SK-MEL-28 melanoma) was over 100 µM, the TGI (UACC-62 melanoma) was over 100 µM and the TGI (MALME-3M melanoma) was over 100 µM. For the same compound, the TGI (SNB-19 CNS) was over 100 µM, the TGI (A549 NSCLC) was over 100 µM and the TGI (NCI/ADR-RES ovarian) was over 100 µM. For the same compound, the TGI (IGROV1 ovarian) was over 100 µM, the TGI (HOP-62 NSCLC) was over 100 µM and the TGI (SK-MEL-5 melanoma) was over 100 µM. The TGI (HCT-116 colon) was over 100 µM.
`Nc1nc2c(ncn2CC(CO)CC(c2ccccc2)P(=O)(O)O)c(=O)[nH]1` (stereo unspecified) gave a TGI (UACC-257 melanoma) of over 100 µM, a TGI (NCI-H226 lung) of over 100 µM and a TGI (786-0 renal) of over 100 µM. The TGI (SF-539 CNS) was over 100 µM, the TGI (SK-MEL-28 melanoma) was over 100 µM and the TGI (UACC-62 melanoma) was over 100 µM. It also gave a TGI (MALME-3M melanoma) of over 100 µM, a TGI (SNB-19 CNS) of over 100 µM and a TGI (A549 NSCLC) of over 100 µM. For the same compound, the TGI (IGROV1 ovarian) was over 100 µM, the TGI (HOP-62 NSCLC) was over 100 µM and the TGI (RXF 393 renal) was over 100 µM. The TGI (SK-MEL-5 melanoma) was over 100 µM and the TGI (HCT-116 colon) was over 100 µM.
Compound `CN1C(=O)C(O)C[C@@H]1c1ccc(F)cc1` (stereo partly specified) has a TGI (UACC-257 melanoma) of over 100 µM, a TGI (BT-549 breast) of over 100 µM and a TGI (NCI-H226 lung) of over 100 µM. It also gave a TGI (DU-145 prostate) of over 100 µM, a TGI (786-0 renal) of over 100 µM and a TGI (SF-539 CNS) of over 100 µM. It also gave a TGI (SK-MEL-28 melanoma) of over 100 µM, a TGI (UACC-62 melanoma) of over 100 µM and a TGI (SNB-19 CNS) of over 100 µM. For the same compound, the TGI (A549 NSCLC) was over 100 µM, the TGI (IGROV1 ovarian) was over 100 µM and the TGI (HOP-62 NSCLC) was over 100 µM. The TGI (RXF 393 renal) was over 100 µM, the TGI (SK-MEL-5 melanoma) was over 100 µM and the TGI (HCT-116 colon) was over 100 µM.
`CCOC(=O)C1C(=O)c2cccc(OC)c2C2COC(=O)N12` (stereo unspecified) showed a TGI (UACC-257 melanoma) of over 100 µM, a TGI (NCI-H226 lung) of over 100 µM and a TGI (786-0 renal) of over 100 µM. It also gave a TGI (SF-539 CNS) of over 100 µM, a TGI (SK-MEL-28 melanoma) of over 100 µM and a TGI (UACC-62 melanoma) of over 100 µM. The TGI (MALME-3M melanoma) was over 100 µM, the TGI (SNB-19 CNS) was over 100 µM and the TGI (A549 NSCLC) was over 100 µM. The TGI (IGROV1 ovarian) was over 100 µM, the TGI (HOP-62 NSCLC) was over 100 µM and the TGI (RXF 393 renal) was over 100 µM. For the same compound, the TGI (SK-MEL-5 melanoma) was over 100 µM and the TGI (HCT-116 colon) was over 100 µM.
